These results are taken from patent US10227668B2, “Method for preparing fructose or xylulose from biomass containing glucose or xylose using butanol, and method for separating the same” (KOREA RESEARCH INSTITUTE OF CHEMICAL TECHNOLOGY, priority 2016, dated 2019).

Each structure is given as a SMILES string. Converted amounts (≈) assume the structure as drawn.

For data set [1] the following is noted: @ 40° C.; cited from earlier work.
Data set [2] can be described thus: Solubility in 1-butanol. It counts as physicochemical. The following applies: per 100 g 1-butanol, 50° C. An excerpt:
As a result, glucose having remarkably low solubility at the corresponding temperature can be selectively crystallized, thereby easily separating the glucose by filtration.

The conditions of data set [3]: @ 40° C.; cited from earlier work. The source holds these as a separate data set.

As to `O=C(CO)[C@@H](O)[C@H](O)[C@H](O)CO` [fructose], the solubility in methanol in data set [1] was 229.7 mg/mL (≈ 1280 mM). Besides, in data set [2], the “solubility in 1-butanol” value came out at 32 g. For the same compound, the solubility in ethanol in data set [3] is 36.3 mg/mL (≈ 201 mM).
